Consider 2 compounds from patent US20220362223A1, “ORAL FORMULATION OF X842” (Cinclus Pharma Holding AB, priority 2019, published 2022).

In brackets after ≈: the same amount, converted by molar mass. A value given as a limit tells only on which side of the number the result lay.

For data set [1], the system named is gastric acid production. Briefly: Clinical Phase I study of X842: intragastric pH / gastric acid control. The format is in vivo, human. The method, then: (§1) X842 is a prodrug of linaprazan, which was disclosed in WO 99/55706 and previously studied in Phase I and II studies. […] A clinical Phase I study has shown that administration of a single dose of X842 can maintain the intragastric acidity above pH 4 for 24 hours. X842 is therefore tailored for patients with severe erosive gastroesophageal reflux disease (eGERD).
(§2) It is estimated that this requires a minimal plasma concentration (Cmin) of linaprazan of at least about 240 nmol/L after 22 hours. At such doses, a once daily administration of the formulation would be sufficient. Therefore, in another embodiment, the invention relates to a formulation as disclosed herein, wherein the formulation provides a Cmin of linaprazan in a human of at least about 240 nmol/L after 22 hours following administration of the oral formulation to said human. In a preferred embodiment, the invention relates to a formulation as disclosed herein, wherein a unit dose of the formulation provides a Cmin of linaprazan in a human of at least about 240 nmol/L after 22 hours following administration of the oral formulation to said human.

The nature of data set [2]: Solubility of X842 in water. The format is physicochemical. The text has this:
The solubility of X842 is very low. […] This low solubility is problematic for solid oral formulations, and especially for solid immediate release formulations where the active ingredient should dissolve in only a short time period.

The nature of data set [3]: clinical. Details: species or system human. Particulars: in vivo. The method, then: as §1, §2
Data set [4] concerns gastric acid production. To be noted: Phase I and II studies; cited from earlier work.

As to `Cc1cccc(C)c1CNc1cc(C(=O)NCCOC(=O)CCCC(=O)O)cn2c(C)c(C)nc12` [Example X842, 5-{2[({8-[(2,6-dimethylbenzyl)amino]-2,3-dimethylimidazo[1,2-a]pyridine-6-yl}carbonyl)-amino]ethoxy}-5-oxopentanoic acid], the “control of gastric acid production” value in data set [1] (compared to linaprazan) was “total control of the gastric acid production for a longer time”. Also, the “time intragastric acidity is maintained above pH 4” value in data set [1] (single dose, clinical Phase I) is recorded as 24 hours. For the same compound, the solubility in water result in data set [2] (pH 6.8) was “practically insoluble”. In data set [2] (water, simulated gastric fluid, pH 1.0), this compound came in with a solubility of roughly 113 µg/mL (≈ 235 µM). For the same compound, the “half-life in the body” value in data set [3] (human) is “longer half-life”. Besides, in data set [3], the “metabolism after absorption into the blood stream” value was “quickly metabolized into linaprazan”; the “plasma concentration of X842” value was “only very low and difficult to determine”.
In the case of `Cc1cccc(C)c1CNc1cc(C(=O)NCCO)cn2c(C)c(C)nc12` [linaprazan], in data set [4], the “duration of acid inhibition” value is “too short duration of acid inhibition”; the “elimination from the body” value is on record as “quickly eliminated from the body”; the “onset of action / effect at first dose” value is “fast onset of action and full effect at first dose”; the tolerability result is listed as “well tolerated”. In data set [3] (human), this compound had a concentration at 22 h of no less than 240 nM.
